Results: patent US20170210778A1, “NOVEL COMPOUNDS” (The Provost, Fellows, Foundation Scholars, and the other …, priority 2014, published 2017)

Assays:
hNOD2 = biological target: T1, hNOD2 (Homo sapiens, UniProt Q9HC29); assay: NOD2 functional agonist assay, 293hNOD2-SEAP reporter cells; assay type: cell-based; details: 293hNOD2 cells, OD above 3*O.D of negative control
T1 construct: expressed in transfected cells; host or cells: HEK293
From the text: (§1) HEK293 cells were stably transfected with plasmid for the overexpression of the NOD2 genes and a reporter plasmid expressing a secreted embryonic alkaline phosphatase (SEAP) gene under the control of a promoter inducible by the transcription factors NF-κB and AP-1. These cells are referred herein as 293hNOD2-SEAP. Upon NOD2 stimulation, these cells induce the activation of NF-κB and AP-1 and subsequently the secretion of SEAP. The reporter protein is easily detectable and measurable when using QUANTI-Blue™ (InvivoGen, San Diego, Calif.), a medium that turns purple/blue in the presence of SEAP.
The biological activity of the compounds using 293hNOD2 cells. SEAP expression was measured using the commercially available SEAP detection kit (HEK-Blue™ Detection, InvivoGen). The SEAP activity in cells was quantified using the microplate reader (FLUOStar OPTIMA, BMG laboratories), the absorbance values were read using filter with excitation at 620 nm and emission at 655 nm. The results provided in Table 3 were expressed as the concentration were a significant mean optical density (OD) can be observed (above 3*O.D of negative control) as the mean optical density. As a positive control, the NOD2 pathway was stimulated with commercially available MDP (InvivoGen) and M-triDAP (InvivoGen). As a negative control endotoxin-free water was used. Additionally, 293 cells expressing the SEAP gene but not the NOD2 gene were used as a control.

human NOD1 = biological target: T2, human NOD1 (Homo sapiens, UniProt Q9Y239); assay: NOD1 functional agonist assay, 293hNOD1-SEAP reporter cells; assay type: cell-based; details: 293hNOD1 cells, OD above 3*O.D of negative control
T2 construct: expressed in transfected cells; host or cells: HEK293
T2 sequence (Q9Y239 1-953): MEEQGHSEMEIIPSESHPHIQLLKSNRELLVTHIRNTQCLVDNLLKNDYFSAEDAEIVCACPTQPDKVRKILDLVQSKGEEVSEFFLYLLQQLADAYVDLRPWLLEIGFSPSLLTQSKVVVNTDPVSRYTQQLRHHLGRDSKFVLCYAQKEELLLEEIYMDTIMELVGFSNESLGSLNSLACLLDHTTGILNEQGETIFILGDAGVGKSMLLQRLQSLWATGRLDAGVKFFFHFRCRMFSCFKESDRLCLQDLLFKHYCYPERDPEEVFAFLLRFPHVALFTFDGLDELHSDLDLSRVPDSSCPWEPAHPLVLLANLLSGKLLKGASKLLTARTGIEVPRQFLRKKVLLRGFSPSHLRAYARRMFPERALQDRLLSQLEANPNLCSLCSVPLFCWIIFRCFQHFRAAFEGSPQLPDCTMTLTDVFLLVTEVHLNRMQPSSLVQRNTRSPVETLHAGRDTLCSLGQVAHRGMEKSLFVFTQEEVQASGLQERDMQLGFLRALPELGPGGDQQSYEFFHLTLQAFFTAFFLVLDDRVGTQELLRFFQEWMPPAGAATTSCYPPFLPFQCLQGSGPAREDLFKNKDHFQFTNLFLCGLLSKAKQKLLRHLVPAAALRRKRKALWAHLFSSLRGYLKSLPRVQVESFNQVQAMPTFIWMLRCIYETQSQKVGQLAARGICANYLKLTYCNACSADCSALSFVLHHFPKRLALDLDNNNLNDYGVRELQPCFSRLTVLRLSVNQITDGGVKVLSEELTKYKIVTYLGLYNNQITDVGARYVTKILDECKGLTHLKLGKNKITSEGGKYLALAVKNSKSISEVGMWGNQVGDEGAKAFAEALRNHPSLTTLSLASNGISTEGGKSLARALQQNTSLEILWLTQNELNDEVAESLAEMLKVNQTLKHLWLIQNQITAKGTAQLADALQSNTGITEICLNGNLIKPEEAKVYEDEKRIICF
From the text: as §1, with “NOD1” for “NOD2”, “293hNOD1-SEAP (for cells overexpressing the human NOD1 gene) and 293mNOD1-SEAP (for cells overexpressing the murine NOD1 gene).” for “293hNOD2-SEAP.”
(§2) The biological activity of the compounds of the invention tested using 293hNOD1 and 293mNOD1 cells. SEAP expression was measured using the commercially available SEAP detection kit (HEK-Blue™ Detection, InvivoGen). The SEAP activity in cells was quantified using the microplate reader (FLUOStar OPTIMA, BMG laboratories), the absorbance values were read using filter with excitation at 620 nm and emission at 655 nm. The results provided in Table 2 were expressed as the concentration were a significant mean optical density (OD) can be observed (above 3*O.D of negative control). As a positive control, the NOD1 pathway was stimulated with commercially available iE-DAP (InvivoGen) and C12-iE-DAP (an acylated derivative of DAP; InvivoGen). As a negative control endotoxin-free water was used. Additionally, 293 cells expressing the SEAP gene but not the NOD1 gene were used as a control.

murine NOD1 = biological target: T3, murine NOD1 (Mus musculus, UniProt Q8BHB0); assay: NOD1 functional agonist assay, 293mNOD1-SEAP reporter cells; assay type: cell-based; details: 293mNOD1 cells, OD above 3*O.D of negative control
T3 construct: expressed in transfected cells; host or cells: HEK293
T3 sequence (Q8BHB0 1-953): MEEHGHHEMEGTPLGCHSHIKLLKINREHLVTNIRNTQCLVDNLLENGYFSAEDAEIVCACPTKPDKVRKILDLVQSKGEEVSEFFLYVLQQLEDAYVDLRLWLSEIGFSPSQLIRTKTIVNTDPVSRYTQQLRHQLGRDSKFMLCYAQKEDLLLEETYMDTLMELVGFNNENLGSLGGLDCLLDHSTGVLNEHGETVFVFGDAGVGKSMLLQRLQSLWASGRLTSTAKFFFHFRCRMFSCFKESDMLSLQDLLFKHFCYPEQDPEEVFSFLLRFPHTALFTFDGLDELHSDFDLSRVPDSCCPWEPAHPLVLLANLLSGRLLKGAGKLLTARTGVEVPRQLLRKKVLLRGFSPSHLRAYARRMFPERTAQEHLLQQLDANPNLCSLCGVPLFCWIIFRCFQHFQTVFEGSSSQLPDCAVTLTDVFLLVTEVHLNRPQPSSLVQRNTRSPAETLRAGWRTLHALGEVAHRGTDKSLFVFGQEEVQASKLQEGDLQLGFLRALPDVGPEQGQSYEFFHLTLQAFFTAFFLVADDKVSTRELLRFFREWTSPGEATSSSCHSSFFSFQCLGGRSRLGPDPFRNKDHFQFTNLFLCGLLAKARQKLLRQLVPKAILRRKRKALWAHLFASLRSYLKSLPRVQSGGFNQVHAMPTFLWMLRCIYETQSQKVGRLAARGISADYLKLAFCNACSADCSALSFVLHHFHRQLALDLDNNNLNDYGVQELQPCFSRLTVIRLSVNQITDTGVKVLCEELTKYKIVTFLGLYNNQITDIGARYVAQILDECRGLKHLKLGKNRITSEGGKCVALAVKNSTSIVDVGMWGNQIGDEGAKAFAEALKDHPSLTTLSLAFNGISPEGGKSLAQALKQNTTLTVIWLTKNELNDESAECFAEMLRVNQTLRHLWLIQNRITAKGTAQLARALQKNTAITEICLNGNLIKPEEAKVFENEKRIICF
From the text: as §1, with “NOD1” for “NOD2”, “293hNOD1-SEAP (for cells overexpressing the human NOD1 gene) and 293mNOD1-SEAP (for cells overexpressing the murine NOD1 gene).” for “293hNOD2-SEAP.”
as §2

PEC = assay: IL-10 production by PEC in vitro; assay type: cell-based; details: 24 h stimulation, FIG. 1A
EAE in C57BL/6 mice = assay: Experimental Autoimmune Encephalomyelitis (EAE) model; assay type: in vivo
From the text: EAE is induced in C57BL/6 mice by immunization with an emulsion of MOG35-55 or MOG1-125 in complete Freund's adjuvant (CFA), followed by administration of pertussis toxin (PT) in PBS, first on the day of immunization and then again the following day.

[1] = test system: LPM in the peritoneal cavity; assay: Numbers of LPM in the peritoneal cavity after i.p. injection; assay type: in vivo; details: injected i.p. into mice; FIG. 1B

T1 sequence (Q9HC29 whole entry): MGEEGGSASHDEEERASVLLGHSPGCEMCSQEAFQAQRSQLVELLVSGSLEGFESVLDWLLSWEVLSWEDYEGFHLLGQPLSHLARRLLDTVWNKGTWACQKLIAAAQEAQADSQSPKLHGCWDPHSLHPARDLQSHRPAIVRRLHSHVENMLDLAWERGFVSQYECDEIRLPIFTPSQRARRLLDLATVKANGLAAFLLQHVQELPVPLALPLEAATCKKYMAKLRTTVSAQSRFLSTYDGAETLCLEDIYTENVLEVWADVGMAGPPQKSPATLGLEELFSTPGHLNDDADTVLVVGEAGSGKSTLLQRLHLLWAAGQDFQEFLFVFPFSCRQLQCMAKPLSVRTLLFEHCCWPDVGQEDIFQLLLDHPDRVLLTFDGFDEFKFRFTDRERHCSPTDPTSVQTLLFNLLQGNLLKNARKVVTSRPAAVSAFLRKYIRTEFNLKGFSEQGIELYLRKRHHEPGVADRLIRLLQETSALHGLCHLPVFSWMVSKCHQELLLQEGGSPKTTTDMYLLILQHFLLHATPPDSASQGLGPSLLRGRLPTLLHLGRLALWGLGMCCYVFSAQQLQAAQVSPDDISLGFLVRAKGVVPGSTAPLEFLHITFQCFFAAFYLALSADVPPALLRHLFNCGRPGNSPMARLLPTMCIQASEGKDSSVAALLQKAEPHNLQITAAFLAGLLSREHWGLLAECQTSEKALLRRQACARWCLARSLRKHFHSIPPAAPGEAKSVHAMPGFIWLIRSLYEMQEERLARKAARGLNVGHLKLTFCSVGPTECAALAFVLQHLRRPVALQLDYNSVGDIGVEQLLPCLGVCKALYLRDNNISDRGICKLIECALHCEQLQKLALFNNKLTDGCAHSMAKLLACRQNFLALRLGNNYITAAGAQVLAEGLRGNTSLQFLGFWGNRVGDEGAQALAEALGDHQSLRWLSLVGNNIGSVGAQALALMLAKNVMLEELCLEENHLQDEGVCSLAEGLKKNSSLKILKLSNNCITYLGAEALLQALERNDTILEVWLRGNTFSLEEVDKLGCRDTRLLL

Row | SMILES | hNod1: concentration where a significant mean optical density (OD) can be observed (human NOD1) [µg/mL] | mNod1: concentration where a significant mean optical density (OD) can be observed (murine NOD1) [µg/mL] | hNod2: concentration where a significant mean optical density (OD) can be observed (hNOD2) [µg/mL] | production of IL-10 by PEC (PEC) | EAE attenuation in WT mice (EAE in C57BL/6 mice; WT mice, FIG. 2) | onset of EAE (EAE in C57BL/6 mice; treated IL-10−/− mice versus untreated WT or IL-10−/− mice, FIG. 2) | mice that developed EAE (EAE in C57BL/6 mice; treated IL-10−/− mice, FIG. 2) [%] | mice with any symptoms of EAE (EAE in C57BL/6 mice; treated WT mice, FIG. 2) | EAE-associated weight loss (EAE in C57BL/6 mice; treated mice, FIG. 1C) | clinical course of EAE (EAE in C57BL/6 mice; treated mice, FIG. 1C) | numbers of LPM in the peritoneal cavity [1]
1 | CC(=O)N[C@H]1[C@@H](OCc2ccccc2)O[C@H](CO)[C@@H](O)[C@@H]1O[C@H](C)C(=O)N[C@@H](C)C(=O)N[C@H](CCC(=O)N[C@H](CSC[C@H](N)C(=O)O)C(=O)NCC(=O)O)C(=O)O [Example 32, N^2-(((R)-2-(((2S,3R,4R,5S,6R)-3-acetamido-2-(benzyloxy)-5-hydroxy-6-(hydroxymethyl)tetrahydro-2H-pyran-4-yl)oxy)propanoyl)-L-alanyl)-N^5-((S)-3-(((R)-2-amino-2-carboxyethyl)thio)-1-((carboxymethyl)amino)-1-oxopropan-2-yl)-D-glutamine] | 0.1 | 0.1 | 0.1 | – | – | – | – | – | – | – | –
2 | CC(=O)N[C@H]1[C@@H](OCc2ccccc2)O[C@H](CO)[C@@H](O)[C@@H]1O[C@H](C)C(=O)N[C@@H](C)C(=O)N[C@H](CCC(=O)N[C@H](CSC[C@H](N)C(=O)O)C(=O)N[C@H](C)C(=O)O)C(=O)O [Example 33, N2-(((R)-2-(((2S,3R,4R,5S,6R)-3-acetamido-2-(benzyloxy)-5-hydroxy-6-(hydroxymethyl)tetrahydro-2H-pyran-4-yl)oxy)propanoyl)-L-alanyl)-N^5-((S)-3-(((R)-2-amino-2-carboxyethyl)thio)-1-(((R)-1-carboxyethyl)amino)-1-oxopropan-2-yl)-D-glutamine] | 1 | 1 | 1 | – | – | – | – | – | – | – | –
3 | CCCCCCCCCCCC(=O)N[C@H](CCC(=O)N[C@H](CSC[C@H](N)C(=O)O)C(=O)N[C@H](C)C(=O)O)C(=O)O [Example 16, N^5-((S)-3-(((R)-2-amino-2-carboxyethyl)thio)-1-(((R)-1-carboxyethyl)amino)-1-oxopropan-2-yl)-N^2-dodecanoyl-D-glutamine] | 0.01 | 0.001 | – | – | – | – | – | – | – | – | –

Second part, led by results:

Row | hNod1: concentration where a significant mean optical density (OD) can be observed (human NOD1) [µg/mL] | mNod1: concentration where a significant mean optical density (OD) can be observed (murine NOD1) [µg/mL] | SMILES | hNod2: concentration where a significant mean optical density (OD) can be observed (hNOD2) [µg/mL] | production of IL-10 by PEC (PEC) | EAE attenuation in WT mice (EAE in C57BL/6 mice; WT mice, FIG. 2) | onset of EAE (EAE in C57BL/6 mice; treated IL-10−/− mice versus untreated WT or IL-10−/− mice, FIG. 2) | mice that developed EAE (EAE in C57BL/6 mice; treated IL-10−/− mice, FIG. 2) [%] | mice with any symptoms of EAE (EAE in C57BL/6 mice; treated WT mice, FIG. 2) | EAE-associated weight loss (EAE in C57BL/6 mice; treated mice, FIG. 1C) | clinical course of EAE (EAE in C57BL/6 mice; treated mice, FIG. 1C) | numbers of LPM in the peritoneal cavity [1]
4 | 1 | 1 | CC(=O)N[C@H]1[C@@H](OCc2ccccc2)O[C@H](CO)[C@@H](O)[C@@H]1O[C@H](C)C(=O)N[C@@H](C)C(=O)N[C@H](CCC(=O)N[C@H](CSC[C@H](N)C(=O)O)C(=O)O)C(=O)O [Example 31, N^2-(((R)-2-(((2S,3R,4R,5S,6R)-3-acetamido-2-(benzyloxy)-5-hydroxy-6-(hydroxymethyl)tetrahydro-2H-pyran-4-yl)oxy)propanoyl)-L-alanyl)-N^5-((S)-2-(((R)-2-amino-2-carboxyethyl)thio)-1-carboxyethyl)-D-glutamine] | 0.1 | – | – | – | – | – | – | – | –
5 | 0.01 | 0.01 | CCCCCCC(=O)N[C@H](CCC(=O)N[C@H](CSC[C@H](N)C(=O)O)C(=O)N[C@H](C)C(=O)O)C(=O)O [Example 15, N^5-((S)-3-(((R)-2-amino-2-carboxyethyl)thio)-1-(((R)-1-carboxyethyl)amino)-1-oxopropan-2-yl)-N^2-heptanoyl-D-glutamine] | – | induced the production of significant concentrations of IL-10 | significantly attenuated | slightly later onset | 100 | one of 6 | prevented associated weight loss | significantly attenuated | significantly increased
